Experimental data published in patent US6048874A, “Parenteral metolazone formulations” (priority 1999, dated 2000).
Converted amounts (≈) assume the structure as drawn. “And” between values parts separate entries of the source, which are not always exact repeats. Equal values may be shown once.

How the values were obtained:
[1] = Apparent equilibrium solubility redetermined, UV analysis; type: physicochemical; details: 65% w/v propylene glycol/15% w/v ethyl alcohol/water, UV 235 nm
Method: (§1) The apparent equilibrium solubility was redetermined more accurately as follows. A 300 g quantity of ethyl alcohol (95% v/v in water) and 1300 g of propylene glycol were added to a 2000 ml volumetric flask and mixed well. Next, purified water was added q.s. to 2000 ml. This is the solvent.
(§2) Nine 30 ml amber bottles were filled with 25 ml of the solvent and 400 mg of metolazone and mixed on a wrist arm shaker for 24 hours (3 bottles), 48 hours (3 bottles), and 72 hours (3 bottles). The samples were filtered through a membrane filter (Whatman 25 mm 601X Nylon Filter (0.45 μm)). The concentration of the samples was determined by HPLC and by UV analysis.
The sample concentrations were measured by the UV absorbance at 235 nm using an UV/VIS spectrophotometer (HP 8453, available from Hewlett-Packard, Palo Alto, Calif.).

[2] = cited from earlier work
[3] = diuretic; cited from earlier work
[4] = Apparent equilibrium solubility, spectrophotometric assay at 346 nm; type: physicochemical; details: aqueous propylene glycol/ethanol, organic solvent or mixture
Method: The apparent equilibrium solubility of metolazone in an aqueous solvent of 65% w/v propylene glycol/15% w/v ethyl alcohol (95% v/v in water) was determined as described below.
A 250 mg quantity of metolazone was equilibrated with 20 ml of a solvent consisting of 65% w/v propylene glycol, 15% w/v ethyl alcohol (95% v/v in water), and water for 24 hours at room temperature on a wrist action shaker. […] After equilibration, the solution was filtered through a 0.45 μm filter, diluted, and assayed spectrophotometrically at 346 nm.

[5] = cited from earlier work; remark: listed apart in the source
[6] = Apparent equilibrium solubility redetermined, HPLC analysis; type: physicochemical; details: 65% w/v propylene glycol/15% w/v ethyl alcohol/water
Method: as §1, §2
The sample concentrations were analyzed by an HPLC system (HP 1100, available from Hewlett-Packard, Palo Alto, Calif.) equipped with a C18 column and an UV detector set at 230 nm. The mobile phase consisted of water and methanol at a ratio of 62/38 (v/v) and was used at a flow rate of 1.5 ml/minute.

[7] = cited from earlier work; remark: listed apart in the source

- solubility thermodynamic at 24 h ([1]; aqueous propylene glycol/ethanol, organic solvent or mixture, shaken 24 hrs, read-out: Concentration of Metolazone, UV (apparent equilibrium solubility)): 8090 µg/mL (≈ 22.1 mM)
- solubility thermodynamic at 48 h ([1]; aqueous propylene glycol/ethanol, organic solvent or mixture, shaken 48 hrs, read-out: Concentration of Metolazone, UV (apparent equilibrium solubility)): 7580 µg/mL (≈ 20.7 mM)
- solubility thermodynamic at 72 h ([1]; aqueous propylene glycol/ethanol, organic solvent or mixture, shaken 72 hrs, read-out: Concentration of Metolazone, UV (apparent equilibrium solubility)): 7300 µg/mL (≈ 20 mM)
- Concentration of Metolazone, UV (apparent equilibrium solubility) ([1]; shaken 24 hrs, 1440 min): 7540 µg/mL and 7410 µg/mL
- Concentration of Metolazone, UV (apparent equilibrium solubility) ([1]; shaken 48 hrs, 2880 min): 7560 µg/mL and 7430 µg/mL
- Concentration of Metolazone, UV (apparent equilibrium solubility) ([1]; shaken 72 hrs, 4320 min): 7310 µg/mL and 7550 µg/mL
- solubility thermodynamic at 24 h ([4]; 65% w/v propylene glycol, 15% w/v ethyl alcohol (95% v/v in water), water, 24 hours, room temperature, spectrophotometric 346 nm): 8360 µg/mL (≈ 22.9 mM)
- solubility thermodynamic ([4]; aqueous 65% w/v propylene glycol, 15% w/v ethyl alcohol, read-out: apparent equilibrium solubility limit): ~8000 µg/mL (≈ 21.9 mM)
- solubility thermodynamic at 24 h ([6]; aqueous propylene glycol/ethanol, organic solvent or mixture, shaken 24 hrs, read-out: Concentration of Metolazone, HPLC (apparent equilibrium solubility)): 7900 µg/mL (≈ 21.6 mM)
- solubility thermodynamic at 48 h ([6]; aqueous propylene glycol/ethanol, organic solvent or mixture, shaken 48 hrs, read-out: Concentration of Metolazone, HPLC (apparent equilibrium solubility)): 7810 µg/mL (≈ 21.3 mM)
- solubility thermodynamic at 72 h ([6]; aqueous propylene glycol/ethanol, organic solvent or mixture, shaken 72 hrs, read-out: Concentration of Metolazone, HPLC (apparent equilibrium solubility)): 7610 µg/mL (≈ 20.8 mM)
- Concentration of Metolazone, HPLC (apparent equilibrium solubility) ([6]; shaken 24 hrs, 1440 min): 7730 µg/mL and 7650 µg/mL
- Concentration of Metolazone, HPLC (apparent equilibrium solubility) ([6]; shaken 48 hrs, 2880 min): 7680 µg/mL and 7660 µg/mL
- Concentration of Metolazone, HPLC (apparent equilibrium solubility) ([6]; shaken 72 hrs, 4320 min): 7680 µg/mL and 7910 µg/mL
SMILES: Cc1ccccc1N1C(=O)c2cc(S(N)(=O)=O)c(Cl)cc2NC1C (stereo not shown) [Metolazone, 7-chloro-1,2,3,4-tetrahydro-2-methyl-3-(2-methylphenyl)-4-oxo-6-quinazolinesulfonamide]
- solubility in water [2]: about 0.02 mg/ml
- potency, on a weight basis, vs quinethazone or hydrochlorothiazide [3]: greater potency
- decomposition when exposed to light [5]: decompose when exposed to light
- pH of aqueous solution sufficient to solubilize metolazone ([7]; aqueous solution, alkali hydroxides): about 11
- chemical stability at high pH ([7]; pH of about 11): chemically unstable
